The NIST ThermoML archive (doi:10.1021/acs.jced.7b00192)

Assay: molar heat capacity at constant pressure; mn = molality of the nth substance listed, in mol/kg
Conditions: 10000 kPa, Liquid, Large sample (1 g) DSC

[K+].[OH-] [potassium hydroxide] + O
molar heat capacity at constant pressure [J/K/mol]
Conditions	m1 = 0.201	m1 = 0.5009	m1 = 0.999	m1 = 2.012	m1 = 3	m1 = 4.505	m1 = 6.002
325 K	74.45	73.81	72.8	71.28	70.15	69.18	68.41
337.4 K	74.58	73.96	73.05	71.64	70.55	69.5	68.84
349.7 K	74.72	74.09	–	–	–	–	69.19
349.8 K	–	–	73.21	71.81	70.8	69.82	–
362.1 K	74.89	74.29	73.45	72.13	71.12	70.2	69.62
374.5 K	75.11	74.49	73.67	72.43	71.42	70.5	69.98
386.8 K	75.37	74.76	73.96	72.65	71.69	70.78	70.31
399.2 K	75.69	75.06	74.27	72.97	72.03	71.12	70.62
411.5 K	–	–	–	–	–	–	70.86
411.6 K	76.08	75.46	74.6	73.21	72.28	71.37	–
423.9 K	76.54	75.88	74.91	73.59	72.62	71.69	71.13
436.3 K	77.1	76.36	75.36	73.96	72.91	71.95	71.43
448.6 K	77.74	–	–	–	–	–	71.78
448.7 K	–	76.95	75.9	74.44	73.28	72.37	–
461 K	78.47	77.61	76.51	74.86	73.71	72.74	72.04
473.4 K	79.36	78.39	77.23	75.47	74.29	73.14	72.44
485.7 K	80.4	79.34	–	–	74.75	73.56	72.83
485.8 K	–	–	78	76.01	–	–	–
498.1 K	81.6	80.4	78.94	76.7	75.36	74.05	73.27
510.5 K	83.06	81.72	80	77.49	75.91	74.43	73.69
522.8 K	84.83	83.26	81.23	–	76.7	74.99	74.16
522.9 K	–	–	–	78.41	–	–	–
535.2 K	87.02	85.12	82.83	79.52	77.5	75.54	74.51
547.6 K	89.76	87.48	84.7	80.95	78.49	76.26	75.11
555 K	91.77	89.19	86.04	81.81	79.19	76.73	75.41
564.9 K	95.05	91.89	88.12	83.07	80.09	77.46	75.77
